Measurements: patent publication US20150025236A1, “PROCESS FOR THE PREPARATION OF STABLE CRYSTALLINE FORM-I OF LINEZOLID, SUBSTANTIALLY FREE OF RESIDUAL SOLVENT” (Jubilant Life Sciences Limited, priority 2012, published 2015)

Assay: Stability study: determination of linezolid Form-II content in linezolid Form-I (polymorph status by XRD)

Polymorphic stability (formation of polymorphic impurity Form-II) (containing residual solvent(s), though complying with the regulatory norms): undergoes transformation into Form II
Time stable during stability study (different conditions of relative humidity (RH) and temperature (Table-1)): up to 12 months
Structure (SMILES): CC(=O)NC[C@H]1CN(c2ccc(N3CCOCC3)c(F)c2)C(=O)O1 [Linezolid Form-I, (S)—N-[[3-(3-fluoro-4-morpholinylphenyl)-2-oxo-5-oxazolidinyl]methyl]acetamide]
Polymorphic stability (formation of polymorphic impurity Form-II) (substantially free of solvent(s)): does not generate polymorphic impurity, Form-II
